± gives the standard deviation.
Assays:
[1] = chemical recovery from spiked human plasma; higher = better extraction; conditions: pooled human plasma
[2] = chemical recovery into PDMS from spiked human plasma; higher = better extraction; conditions: pooled human plasma, extraction method: PES with PDMS
[3] = chemical recovery by SPE of plasma after PDMS sampling; higher = better extraction; conditions: pooled human plasma, extraction method: HLB SPE of plasma after PES
[4] = extraction method: PES+SPE (3 d PDMS equilibration then HLB SPE)
[5] = extraction method: SPE only (HLB 96-well)
[6] = extraction method: SPE only (HLB 96-well), PES comparison experiment
[7] = extraction method: solvent precipitation (ACN + hexane)
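Wherever chemical recovery by SPE of plasma after PDMS sampling is given: over 400 spiked chemicals quantified by LC-HRMS or GC-HRMS via internal standard calibration, recovery relative to spike mix added to unspiked plasma extract to correct matrix effects.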

Compound | chemical recovery [1, 4] [%] | chemical recovery [1, 5] [%] | chemical recovery [1, 6] [%] | chemical recovery [1, 7] [%] | chemical recovery into PDMS ([2]; equilibration time (d): 1) [%] | chemical recovery into PDMS ([2]; equilibration time (d): 3) [%] | chemical recovery into PDMS ([2]; equilibration time (d): 6) [%] | chemical recovery by SPE of plasma ([3]; equilibration time (d): 1) [%] | chemical recovery by SPE of plasma ([3]; equilibration time (d): 3) [%] | chemical recovery by SPE of plasma ([3]; equilibration time (d): 6) [%]
NC(=O)N1c2ccccc2C=Cc2cc(O)ccc21 [2-Hydroxycarbamazepine] | 48.1 ± 3.7 | 44.7 ± 3.9 | 51.6 ± 4.5 | 68.2 ± 1.6 | 0.215 ± 0.2 | 0.668 ± 0.2 | 0.788 ± 0.13 | 57.7 ± 11 | 55.6 ± 6.7 | 51.7 ± 11
CC(C)NCC(O)COc1cccc2ccccc12 (stereo not drawn) [Propranolol] | 7.98 ± 1.1 | 45.4 ± 2.9 | 50 ± 7 | 71.9 ± 3.2 | 0.322 ± 0.19 | 0.522 ± 0.36 | 0.438 ± 0.19 | 8.66 ± 0.64 | 9.06 ± 1.1 | 7.31 ± 0.57
Nc1ccc(/N=N/c2ccccc2)cc1 [Aniline Yellow] | – | – | 28.9 ± 4.3 | – | 12.3 ± 4.1 | 10.4 ± 4.8 | 11.3 ± 3 | 6.65 ± 1.6 | 7.55 ± 0.93 | 5.19 ± 0.91
CC12CC3CC(C)(C1)CC(N)(C3)C2 [Memantine] | 14.8 ± 4.7 | 46.6 ± 1.4 | 45.1 ± 6.8 | 47.1 ± 4.5 | 3.61 ± 1.9 | 4.46 ± 2.7 | 3.08 ± 2.4 | 6.36 ± 0.42 | 7.03 ± 1.2 | 5.53 ± 0.96
CCN(CC)c1nc(C)cc(OP(=S)(OC)OC)n1 [Pirimiphos-methyl] | – | 36.4 ± 3.4 | 42.9 ± 8.2 | 68.8 ± 5.2 | 29.7 ± 4.3 | 33.5 ± 3.9 | 32.1 ± 0.42 | 0.602 ± 0.13 | 0.453 ± 0.41 | 0.275 ± 0.24
Clc1cccc(Cl)c1NC1=NCCN1 [Clonidine] | 28.5 ± 5.5 | 41.2 ± 3.6 | 39.6 ± 6.6 | 60.3 ± 8.8 | 7.21 ± 0.54 | 8.62 ± 0.81 | 6.38 ± 5.7 | 13.4 ± 3.1 | 12.7 ± 1.8 | 12.3 ± 3.9
Clc1cc(Cl)c(-c2ccc(Cl)c(Cl)c2Cl)cc1Cl [PCB138] | 61.3 ± 12 | 2.27 ± 0.8 | 11.2 ± 2.8 | 81.6 ± 6.5 | 67.4 ± 9.5 | 91.8 ± 1.4 | 89.4 ± 5.2 | 4.29 ± 2.9 | 1.78 ± 0.29 | 1.33 ± 0.48
CC(=O)[C@@]1(O)CC[C@H]2[C@@H]3C=C(Cl)C4=CC(=O)[C@@H]5C[C@@H]5[C@]4(C)[C@H]3CC[C@@]21C [Cyproterone] | – | – | 44.8 ± 7 | – | 34.4 ± 3.3 | 39 ± 1.6 | 39.5 ± 1.2 | 7.2 ± 0.97 | 4.61 ± 0.52 | 2.35 ± 0.21
CC[C@H]1CCC[C@H](O[C@H]2CC[C@H](N(C)C)[C@@H](C)O2)[C@@H](C)C(=O)C2=C[C@@H]3[C@@H](C=C[C@@H]4C[C@@H](O[C@@H]5O[C@@H](C)[C@H](OC)[C@@H](OC)[C@H]5OC)C[C@@H]34)[C@@H]2CC(=O)O1 [Spinosyn A] | – | – | 39.5 ± 10 | 71.7 ± 10 | 0.00824 ± 0.014 | 0.0193 ± 0.034 | 0.00695 ± 0.012 | 0.0715 ± 0.12 | 0.155 ± 0.14 | 0.0384 ± 0.0082
Nc1ccc(Cl)cc1 [4-Chloroaniline] | – | 16.4 ± 6.2 | – | – | 6.69 ± 4.3 | 5.92 ± 5.1 | 5.47 ± 3.5 | 11.4 ± 2.3 | 14.6 ± 1.5 | 9.71 ± 1.7
CCCCCCCCCCCCCC[N+](C)(C)[O-] [N,N-Dimethyltetradecylamine-N-oxide] | – | 71.5 ± 26 | 42.7 ± 8.4 | – | 0.599 ± 0.55 | 1.2 ± 0.35 | 1.01 ± 0.26 | 15.7 ± 3.1 | 12.5 ± 4.9 | 8.54 ± 5.7
CO/C=C(/C(=O)OC)c1ccccc1Oc1cc(Oc2ccccc2C#N)ncn1 [Azoxystrobin] | 46.6 ± 5.9 | 46.7 ± 1.1 | 51.9 ± 7.1 | 75.6 ± 3.4 | 40.1 ± 1.9 | 43.9 ± 3.2 | 43 ± 0.52 | 5.12 ± 0.84 | 3.88 ± 0.44 | 2.15 ± 0.22
O=C1Nc2ccc(Cl)cc2C(c2ccccc2Cl)=NC1O (stereo not drawn) [Lorazepam] | 36.5 ± 2.4 | 30.9 ± 2.8 | 45.6 ± 7 | 72.1 ± 3.6 | 4.25 ± 0.37 | 8.29 ± 1.1 | 9.18 ± 1.4 | 38.9 ± 5.5 | 38.9 ± 3 | 31.1 ± 1.8
CC(Cc1ccc(C(C)(C)C)cc1)CN1CCCCC1 (stereo not drawn) [Fenpropidin] | – | – | 44.5 ± 7.7 | 105 ± 9.7 | – | 0.0302 ± 0.026 | – | 0.126 ± 0.086 | 0.0736 ± 0.023 | 0.0409 ± 0.011
c1cc2cccc3c4cccc5cccc(c(c1)c23)c54 [Perylene] | – | 1.66 ± 0.56 | – | 64.2 ± 5.1 | 73.8 ± 6.2 | 71.9 ± 9.9 | 79.5 ± 6 | 0.65 ± 0.62 | 1.03 ± 0.53 | 1.2 ± 0.41
O=c1[nH]c2ccccc2s1 [2-Hydroxybenzothiazole] | 63.5 ± 7 | 49.6 ± 2.7 | 58.8 ± 4.3 | 71.6 ± 5.8 | 9.18 ± 0.11 | 11.1 ± 0.48 | 8.95 ± 1.5 | 36.2 ± 6 | 37.7 ± 2.4 | 30.3 ± 2.5
CC(C)C1(C)N=C(c2ncccc2C(=O)O)NC1=O (stereo not drawn) [Imazapyr] | 44.4 ± 2.9 | 44.7 ± 9.6 | 52.5 ± 4 | 67.7 ± 5.8 | – | – | 0.0849 ± 0.048 | 49.5 ± 5.4 | 53.1 ± 3.2 | 49.2 ± 2.4
CC(C)(C#N)c1cc(Cn2cncn2)cc(C(C)(C)C#N)c1 [Anastrozole] | 51.4 ± 5.5 | 44.4 ± 1.8 | 47.9 ± 3.9 | 69.1 ± 2.4 | 34.8 ± 2.8 | 39.8 ± 1.5 | 41.8 ± 2.5 | 14.8 ± 1.9 | 9.48 ± 1.3 | 4.8 ± 0.57
CCNC(=O)[C@@H](C)OC(=O)Nc1ccccc1 [Carbetamide] | 50.4 ± 4.4 | 47.2 ± 3.9 | 53.1 ± 6.2 | 69.9 ± 2.7 | 8.92 ± 0.88 | 14.1 ± 3.2 | 16.5 ± 2.4 | 49.6 ± 7.6 | 45.6 ± 4.6 | 37.2 ± 8
CCNc1nc(Cl)nc(NCC)n1 [Simazine] | 47.8 ± 5.9 | 43.4 ± 2.3 | 48.6 ± 5.5 | 60.6 ± 5.9 | 30.5 ± 1.1 | 35.8 ± 1.3 | 38.6 ± 2.5 | 9.65 ± 1.2 | 7.56 ± 1.3 | 4.81 ± 0.55
CC(=O)N1CCN(c2ccc(OC[C@H]3CO[C@](Cn4ccnc4)(c4ccc(Cl)cc4Cl)O3)cc2)CC1 (racemic) [Ketoconazole] | 7.76 ± 0.64 | 42.6 ± 2.9 | 39.6 ± 10 | – | 0.0493 ± 0.043 | 0.0293 ± 0.027 | 0.0825 ± 0.0051 | 17.2 ± 0.9 | 12.8 ± 1.7 | 10.5 ± 1.8
CCOP(=S)(OCC)SCn1nnc2ccccc2c1=O [Ethyl azinphos] | – | – | 46.3 ± 6 | 69.5 ± 2.2 | 39.8 ± 4.6 | 41.4 ± 0.64 | 42.5 ± 2.1 | 2.46 ± 0.6 | 2.42 ± 0.18 | 1.19 ± 0.21
CC[C@H](C)[C@H]1O[C@]2(C=C[C@@H]1C)C[C@@H]1C[C@@H](C/C=C(\C)[C@@H](O[C@H]3C[C@H](OC)[C@@H](O[C@H]4C[C@H](OC)[C@@H](NC)[C@H](C)O4)[C@H](C)O3)[C@@H](C)/C=C/C=C3\CO[C@@H]4[C@H](O)C(C)=C[C@@H](C(=O)O1)[C@]34O)O2 [Emamectin B1a] | – | – | 29.7 ± 9.1 | 69 ± 6.4 | 0.154 ± 0.044 | 0.139 ± 0.047 | 0.0633 ± 0.056 | 9.54 ± 2.3 | 9.04 ± 3 | 8.2 ± 4.6
